The compounds below were run against T1, penicillin acylase from Escherichia coli (Escherichia coli, UniProt P06875) (assay: first-order inactivation, residual activity with NIPAB at […] nm). Conditions: inactivation rate constant (given as kin x 10^4) at 0.1 M compound; 0.1 M potassium phosphate pH 7.5; 25°C; active site, turnover-linked; also a substrate.
T1 construct: gene pac; free enzyme in solution; mature alpha/beta heterodimer cut from one precursor (known biology)
Type: biochemical

T1 sequence (P06875 27-235, looked up): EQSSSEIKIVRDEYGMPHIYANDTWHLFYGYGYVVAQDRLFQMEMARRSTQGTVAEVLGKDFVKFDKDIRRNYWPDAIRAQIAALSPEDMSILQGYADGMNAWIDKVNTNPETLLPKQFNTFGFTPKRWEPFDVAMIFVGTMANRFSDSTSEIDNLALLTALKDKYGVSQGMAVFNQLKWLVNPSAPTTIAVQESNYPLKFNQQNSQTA
T1 sequence (P06875 290-846, looked up): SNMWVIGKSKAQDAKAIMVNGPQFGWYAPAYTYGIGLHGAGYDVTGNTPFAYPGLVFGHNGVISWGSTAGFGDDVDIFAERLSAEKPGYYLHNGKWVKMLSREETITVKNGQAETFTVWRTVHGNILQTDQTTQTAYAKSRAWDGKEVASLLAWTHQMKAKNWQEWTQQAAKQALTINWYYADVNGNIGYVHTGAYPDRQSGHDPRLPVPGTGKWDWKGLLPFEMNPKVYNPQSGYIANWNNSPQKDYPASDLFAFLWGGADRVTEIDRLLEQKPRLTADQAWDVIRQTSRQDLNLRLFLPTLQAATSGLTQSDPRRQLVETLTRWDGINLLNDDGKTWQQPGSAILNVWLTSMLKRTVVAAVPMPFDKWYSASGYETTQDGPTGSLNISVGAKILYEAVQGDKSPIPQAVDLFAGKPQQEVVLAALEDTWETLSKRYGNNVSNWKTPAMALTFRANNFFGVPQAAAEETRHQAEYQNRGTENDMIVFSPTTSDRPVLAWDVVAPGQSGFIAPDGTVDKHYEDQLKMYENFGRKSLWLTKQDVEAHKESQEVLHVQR

First: NC(=O)CBr [2-bromoacetamide]
Second: NC(=O)CCl [2-chloroacetamide]
The “kin.10^4, min^-1” value of the first is higher: 47 ± 2 min^-1 for the first, 1.1 ± 0.1 min^-1 for the second.

With `NC(=O)CI` [2-iodoacetamide] the “kin.10^4, min^-1” value was 364 ± 34 min^-1.
